Measurements published in the NIST ThermoML archive (doi:10.1021/je5005752).
± gives the expanded uncertainty stated by the source.

Assay: xn = mol fraction of the nth substance listed
Conditions: 101 kPa, Liquid; for viscosity: Falling or rolling sphere viscometry; for mass density: Vibrating tube method

CCCC(=O)OCC [ethyl butanoate] + CCCO
Conditions | mass density [kg/m3] | viscosity [mPa·s]
288.15 K, x1 = 0.1001 | 819.96 ± 0.21 | 1.784 ± 0.038
288.15 K, x1 = 0.2 | 830.48 ± 0.21 | 1.392 ± 0.03
288.15 K, x1 = 0.2999 | 839.77 ± 0.21 | 1.151 ± 0.025
288.15 K, x1 = 0.3994 | 848.08 ± 0.22 | 1.008 ± 0.022
288.15 K, x1 = 0.4999 | 855.6 ± 0.22 | 0.9046 ± 0.019
288.15 K, x1 = 0.6002 | 862.45 ± 0.23 | 0.8354 ± 0.018
288.15 K, x1 = 0.6998 | 868.56 ± 0.24 | 0.7874 ± 0.017
288.15 K, x1 = 0.8001 | 874.16 ± 0.25 | 0.7517 ± 0.016
288.15 K, x1 = 0.9001 | 879.26 ± 0.25 | 0.7286 ± 0.016
288.15 K, x1 = 1 | 884.16 ± 0.27 | 0.7224 ± 0.016
293.15 K, x1 = 0.1001 | 815.72 ± 0.21 | 1.599 ± 0.034
293.15 K, x1 = 0.2 | 826.03 ± 0.21 | 1.262 ± 0.027
293.15 K, x1 = 0.2999 | 835.14 ± 0.21 | 1.054 ± 0.023
293.15 K, x1 = 0.3994 | 843.3 ± 0.22 | 0.9293 ± 0.02
293.15 K, x1 = 0.4999 | 850.69 ± 0.22 | 0.8397 ± 0.018
293.15 K, x1 = 0.6002 | 857.44 ± 0.23 | 0.779 ± 0.017
293.15 K, x1 = 0.6998 | 863.46 ± 0.24 | 0.737 ± 0.016
293.15 K, x1 = 0.8001 | 868.99 ± 0.25 | 0.706 ± 0.015
293.15 K, x1 = 0.9001 | 874.03 ± 0.26 | 0.6861 ± 0.015
293.15 K, x1 = 1 | 878.9 ± 0.27 | 0.6808 ± 0.015
298.15 K, x1 = 0.1001 | 811.45 ± 0.21 | 1.438 ± 0.031
298.15 K, x1 = 0.2 | 821.55 ± 0.21 | 1.147 ± 0.025
298.15 K, x1 = 0.2999 | 830.49 ± 0.21 | 0.9686 ± 0.021
298.15 K, x1 = 0.3994 | 838.5 ± 0.22 | 0.8586 ± 0.018
298.15 K, x1 = 0.4999 | 845.76 ± 0.22 | 0.7808 ± 0.017
298.15 K, x1 = 0.6002 | 852.4 ± 0.23 | 0.7275 ± 0.016
298.15 K, x1 = 0.6998 | 858.34 ± 0.24 | 0.6906 ± 0.015
298.15 K, x1 = 0.8001 | 863.8 ± 0.25 | 0.6636 ± 0.014
298.15 K, x1 = 0.9001 | 868.79 ± 0.26 | 0.6465 ± 0.014
298.15 K, x1 = 1 | 873.62 ± 0.27 | 0.643 ± 0.014
303.15 K, x1 = 0.1001 | 807.15 ± 0.21 | 1.3 ± 0.028
303.15 K, x1 = 0.2 | 817.04 ± 0.21 | 1.048 ± 0.022
303.15 K, x1 = 0.2999 | 825.81 ± 0.22 | 0.8932 ± 0.019
303.15 K, x1 = 0.3994 | 833.68 ± 0.22 | 0.7965 ± 0.017
303.15 K, x1 = 0.4999 | 840.81 ± 0.23 | 0.727 ± 0.016
303.15 K, x1 = 0.6002 | 847.35 ± 0.23 | 0.68 ± 0.015
303.15 K, x1 = 0.6998 | 853.2 ± 0.24 | 0.6481 ± 0.014
303.15 K, x1 = 0.8001 | 858.59 ± 0.25 | 0.624 ± 0.014
303.15 K, x1 = 0.9001 | 863.53 ± 0.26 | 0.6098 ± 0.013
303.15 K, x1 = 1 | 868.33 ± 0.27 | 0.6072 ± 0.013
308.15 K, x1 = 0.1001 | 802.83 ± 0.21 | 1.179 ± 0.025
308.15 K, x1 = 0.2 | 812.51 ± 0.21 | 0.959 ± 0.021
308.15 K, x1 = 0.2999 | 821.1 ± 0.22 | 0.8239 ± 0.018
308.15 K, x1 = 0.3994 | 828.82 ± 0.22 | 0.7391 ± 0.016
308.15 K, x1 = 0.4999 | 835.83 ± 0.23 | 0.6786 ± 0.015
308.15 K, x1 = 0.6002 | 842.27 ± 0.23 | 0.638 ± 0.014
308.15 K, x1 = 0.6998 | 848.03 ± 0.24 | 0.6089 ± 0.013
308.15 K, x1 = 0.8001 | 853.36 ± 0.25 | 0.5882 ± 0.013
308.15 K, x1 = 0.9001 | 858.26 ± 0.26 | 0.5756 ± 0.013
308.15 K, x1 = 1 | 863.02 ± 0.27 | 0.5736 ± 0.013
313.15 K, x1 = 0.1001 | 798.47 ± 0.21 | 1.073 ± 0.023
313.15 K, x1 = 0.2 | 807.94 ± 0.21 | 0.8796 ± 0.019
313.15 K, x1 = 0.2999 | 816.35 ± 0.22 | 0.7599 ± 0.016
313.15 K, x1 = 0.3994 | 823.93 ± 0.22 | 0.6873 ± 0.015
313.15 K, x1 = 0.4999 | 830.81 ± 0.23 | 0.6338 ± 0.014
313.15 K, x1 = 0.6002 | 837.16 ± 0.23 | 0.598 ± 0.013
313.15 K, x1 = 0.6998 | 842.84 ± 0.24 | 0.5722 ± 0.012
313.15 K, x1 = 0.8001 | 848.11 ± 0.25 | 0.5543 ± 0.012
313.15 K, x1 = 0.9001 | 852.96 ± 0.26 | 0.544 ± 0.012
313.15 K, x1 = 1 | 857.7 ± 0.27 | 0.5424 ± 0.012
318.15 K, x1 = 0.1001 | 794.06 ± 0.21 | 0.9782 ± 0.021
318.15 K, x1 = 0.2 | 803.33 ± 0.21 | 0.8084 ± 0.017
318.15 K, x1 = 0.2999 | 811.58 ± 0.22 | 0.7044 ± 0.015
318.15 K, x1 = 0.3994 | 819 ± 0.22 | 0.6398 ± 0.014
318.15 K, x1 = 0.4999 | 825.77 ± 0.23 | 0.5926 ± 0.013
318.15 K, x1 = 0.6002 | 832 ± 0.23 | 0.5612 ± 0.012
318.15 K, x1 = 0.6998 | 837.62 ± 0.24 | 0.5398 ± 0.012
318.15 K, x1 = 0.8001 | 842.82 ± 0.25 | 0.5227 ± 0.011
318.15 K, x1 = 0.9001 | 847.64 ± 0.26 | 0.5138 ± 0.011
318.15 K, x1 = 1 | 852.36 ± 0.27 | 0.5132 ± 0.011
323.15 K, x1 = 0.1001 | 789.62 ± 0.21 | 0.9018 ± 0.019
323.15 K, x1 = 0.2 | 798.67 ± 0.22 | 0.7475 ± 0.016
323.15 K, x1 = 0.2999 | 806.74 ± 0.22 | 0.6572 ± 0.014
323.15 K, x1 = 0.3994 | 814.03 ± 0.22 | 0.601 ± 0.013
323.15 K, x1 = 0.4999 | 820.68 ± 0.23 | 0.5568 ± 0.012
323.15 K, x1 = 0.6002 | 826.83 ± 0.23 | 0.5301 ± 0.011
323.15 K, x1 = 0.6998 | 832.37 ± 0.24 | 0.5106 ± 0.011
323.15 K, x1 = 0.8001 | 837.52 ± 0.25 | 0.4955 ± 0.011
323.15 K, x1 = 0.9001 | 842.3 ± 0.26 | 0.488 ± 0.011
323.15 K, x1 = 1 | 847 ± 0.27 | 0.487 ± 0.011
